In patent US11820758B2, “NEK6 kinase inhibitors useful for the treatment of solid tumors” (CONSIGLIO NAZIONALE DELLE RICERCHE, priority 2018, dated 2023):
Where two headings read alike, the source gives them in different places. Blank lines part the entries; values can stand above or below the compound they belong to.

Experiments:
NEK6 [1] = molecular target: T1, NEK6 (Homo sapiens, UniProt Q9HC98); assay: LANCE-Ultra NEK6 kinase assay; assay type: biochemical; conditions: for IC50: LANCE-Ultra, 4 nM NEK6, 50 nM ULight-p70 S6K peptide, 100 μM ATP, 90 min, average of 4 experiments ± SEM, read-out: IC50 of NEK6 activity inhibition; for NEK6 activity inhibition in screening: single concentration 30 μM, FIG. 1
T1 sequence (Q9HC98 whole entry): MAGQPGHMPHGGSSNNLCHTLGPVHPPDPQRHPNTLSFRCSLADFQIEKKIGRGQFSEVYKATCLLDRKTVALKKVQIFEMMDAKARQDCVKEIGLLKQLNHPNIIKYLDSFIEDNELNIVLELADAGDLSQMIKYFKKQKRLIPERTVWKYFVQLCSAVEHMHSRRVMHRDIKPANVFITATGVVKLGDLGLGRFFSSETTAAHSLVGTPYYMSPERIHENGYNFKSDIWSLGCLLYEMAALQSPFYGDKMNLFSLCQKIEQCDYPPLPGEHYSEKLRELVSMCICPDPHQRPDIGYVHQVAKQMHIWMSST
Experimental: FIG. 1. NEK6 activity inhibition. Bar graph representing the results of the screening of several compounds at 30 μM by using LANCE-Ultra NEK6 kinase assay (PerkinElmer) incubated with 4 nM NEK6, 50 nM ULight-p70 S6K Peptide and 100 μM ATP for 90 minutes at room temperature. As control inhibitor quercetin was used.
FIG. 2. FIG. 2 represents the molecules identified with inhibitory activity on NEK6 by using LANCE-Ultra NEK6 kinase assay (PerkinElmer). The curves represent the % of NEK6 activity depending upon the inhibitor concentration. A) The compound 8 (ZINC05007751) is capable of inhibiting the NEK6 activity with 1050=3.4±1.2 μM; B) the compound 21 (ZINC04384801) inhibits NEK6 at 1050=2.6±0.05 μM. The IC50 value derives from the average of IC50s of 4 independent experiments±SEM. Each point of the curve represents the average of a triplicate±SEM of a representative experiment.
The compounds in powder (Molport, Riga, LV-1011, Latvia) were dissolved in DMSO 100% at a stock concentration of 10 mM. The fresh compounds were tested initially at a single concentration (30 μM) with LANCE NEK6 Ultra Kinase Assays (Perkin Elmer, Monza (MB)), whereas the remaining solution was aliquoted, kept at −20° C. and used for the enzymatic inhibition curves of the selected compounds. The reaction was performed in 384-OptiPlate™-384 (PerkinElmer #6007290) white plates, by using as reagents the Europium-labeled anti-phospho-p70 S6K (Thr389) Antibody (PerkinElmer #TRF0214), ULight-p70 S6K (Thr389) (PerkinElmer #TRF0126), NEK6 (Carna, Chuo-ku, Kobe, Japan, #05-130), LANCE® Detection Buffer, 10×(PerkinElmer #CR97-100), ATP (Sigma-Aldrich, Saint Louis, U.S.A, #A2383). NEK6, ATP and the compounds were diluted in Kinase Buffer (50 mM HEPES pH 7.5, 1 mM EGTA, 10 mM MgCl2, 2 mM DTT and 0.01% Tween-20), and where necessary DMSO was added to obtain a concentration of 0.3% in the final reaction volume. For the initial screening the compounds were tested at the final concentration of 30 μM, final DMSO 0.3% in kinase buffer and incubated with 4 nM NEK6, 50 nM ULight-p70 S6K Peptide and 100 μM ATP, in a reaction volume of 10 μL for 90 minutes at room temperature. As control inhibitor quercetin (Molport #001-740-557) was used. For the enzymatic inhibition curves, the selected compounds C8 (Molport #002-933-483), C21 (Molport #000-911-820) were diluted serially (dilutions 1:2) from 30 μM to 0.9375 μM (final concentrations: 30 μM; 15 μM; 7.5 μM; 3.75; 1.875 μM; 0.9375 μM in 0.3% DMSO) and incubated under the same conditions. […] After the film removal, the signal was read at the Enspire (PerkinElmer) plate reader (excitation 320 nm and emission at 665 nm). The % of enzymatic activity of NEK6 was calculated with respect to the control (100% activity), after subtracting the white of the experiment.

HCT-15 = assay: Cytotoxicity (ATPlite, 72 h) on HCT-15; assay type: cell-based, human; conditions: HCT-15 (colon), read-out: IC50 values (μM ± SEM)
Experimental: (§1) The compounds C8 and C21 identified in the previous assay of enzymatic activity were tested on 8 tumour cell lines representative of different solid tumours: MDA-MB231 and MCF7 (mammary tumour; ATCC, LGC Standards S.r.L, Sesto San Giovanni, MI), PEO1 and COV318 (ovarian tumour; ECACC, Saltssbury, UK), HCT-15 and SW948 (colon tumour; ECAC and ATCC, Sesto San Giovanni, MI), NCI-H1975 and NCI-H1299, (lung tumour; ATCC). Through experiments of cytotoxicity the capability of such compounds of inhibiting the cell growth was evaluated.
(§2) The cell lines were kept in culture in 75-cm^2 average flasks in atmosphere humidified with 5% CO2/95% air in the following media: DMEM supplemented with 10% FBS, 1% Kanamycin, 1% amino acids not essential for MDA-MB231 and MCF7; RPMI 10% FBS, 1% Kanamycin, 1% amino acids not essential for COV318, NCI-H1975 and NCI-H1299, with addition of 2 mM Sodium Pyruvate for PEO-1; RPMI 20% FBS, 1% Kanamycin, 1% amino acids not essential for HCT-15; LEIBOVITZ'S L15, 10% FBS, 1% Kanamycin, 1% amino acids not essential for SW948. All reagents were purchased at Sigma-Aldrich (St. Louis, MO) if not otherwise specified.
HCT-15 were plated (40,000 cells/ml) in a 96-well black plate. […] 24 h after plating the compounds were added in quadruplicate at the following concentrations: C8 (6 μM; 12 μM; 24 μM; 48 μM; 96 μM; 192 μM) and C21 (8 μM; 16 μM; 32 μM; 64 μM; 128 μM; 256 μM). […] The compound 21 has no inhibitory activity (IC50>100 μM), (Table 1).

NCI-H1975 = assay: Cytotoxicity (ATPlite, 72 h) on NCI-H1975; assay type: cell-based; conditions: Homo sapiens, NCI-H1975 (lung), read-out: IC50 values (μM ± SEM)
Experimental: as §1, §2
(§3) 24 h after plating the compounds were added in quadruplicate at the following concentrations: C8 (6 μM; 12 μM; 24 μM; 48 μM; 96 μM; 192 μM) and C21 (8 μM; 16 μM; 32 μM; 64 μM; 128 μM; 256 μM).

NCI-H1299 = assay: Cytotoxicity (ATPlite, 72 h) on NCI-H1299; assay type: cell-based, human; conditions: NCI-H1299 (lung), read-out: IC50 values (μM ± SEM)
Experimental: as §1, §2
24 h after plating the compounds were added in quadruplicate at the following concentrations: C8 (6 μM; 12 μM; 24 μM; 48 μM; 96 μM; 192 μM) and C21 (8 μM; 16 μM; 32 μM; 64 μM; 128 μM; 256 μM). […] The compound 21 has no inhibitory activity (IC50>100 μM), (Table 1).

SW948 = assay: Cytotoxicity (ATPlite, 72 h) on SW948; assay type: cell-based; conditions: Homo sapiens, SW948 (colon), read-out: IC50 values (μM ± SEM)
Experimental: as §1, §2, §3

NEK6 [2] = molecular target: T1, NEK6; assay: Off-chip Mobility Shift Assay (MSA); assay type: biochemical; conditions: CDK7 peptide 1000 nM, 5 h
Experimental: The inhibitory activity on NEK6 of the compounds C8 and C21 was checked with the technique of Off-chip Mobility Shift Assay (MSA) (CARNA Biosciences Study ID: CBS170097, CARNA Biosciences, Kobe). […] PKR inhibitor was used as positive control. […] of solution 4× of the compounds, […] of 4× Substrate/ATP/Metal solution, and […] of 2× kinase solution were prepared with the reaction buffer (20 mM HEPES, 0.01% Triton X-100, 1 mM DTT, pH7.5), mixed and incubated in wells of polypropylene in 384-well plate for 5 hours at room temperature. Afterwards, […] of Termination Buffer (QuickScout Screening Assist MSA; Carna Biosciences) were added. One proceeded with analysing the reaction with LabChip system (Perkin Elmer), by separating and quantizing the peaks of product and substrate. The kinase reaction was then evaluated based upon the ratio (P/(P+S)) calculated based upon the heights of peak of peptides product (P) and substrate (S). The reading value of the control reaction (complete reaction mix) was placed as 0% of inhibition and the bottom value (Enzima (−)) was placed as 100% of inhibition, then the inhibition percentage of each sample was calculated. The value of IC50 was calculated by means of a logistic model at 4 parameters of the inhibition curves by adaptation to a four-parameter logistic curve.

MDA-MB-231 = assay: Cytotoxicity (ATPlite, 72 h) on MDA-MB-231; assay type: cell-based, human; conditions: MDA-MB-231 (breast), read-out: IC50 values (μM ± SEM)
Experimental: as §1, §2
24 h after plating the compounds were added in quadruplicate at the following concentrations: C8 (6 μM; 12 μM; 24 μM; 48 μM; 96 μM; 192 μM) and C21 (8 μM; 16 μM; 32 μM; 64 μM; 128 μM; 256 μM). […] Similarly, the compound 21 inhibits the growth by 50% at 75±12 μM.

MCF-7 = assay: Cytotoxicity (ATPlite, 72 h) on MCF-7; assay type: cell-based; conditions: Homo sapiens, MCF7, MCF-7 (breast), read-out: IC50 values (μM ± SEM)
Experimental: as §1, §2
MCF-7 were plated (40,000 cells/ml) in a 96-well black plate. […] 24 h after plating the compounds were added in quadruplicate at the following concentrations: C8 (6 μM; 12 μM; 24 μM; 48 μM; 96 μM; 192 μM) and C21 (8 μM; 16 μM; 32 μM; 64 μM; 128 μM; 256 μM).

PEO-1 [3] = assay: Cytotoxicity (ATPlite, 72 h) on PEO-1; assay type: cell-based; conditions: Homo sapiens, PEO1, 72 h, PEO-1 (ovary), read-out: IC50 values (μM ± SEM)
Experimental: as §1, §2
24 h after plating the compounds were added in quadruplicate at the following concentrations: C8 (6 μM; 12 μM; 24 μM; 48 μM; 96 μM; 192 μM) and C21 (8 μM; 16 μM; 32 μM; 64 μM; 128 μM; 256 μM). […]

COV318 = assay: Cytotoxicity (ATPlite, 72 h) on COV318; assay type: cell-based; conditions: Homo sapiens, COV318 (ovary), read-out: IC50 values (μM ± SEM)
Experimental: as §1, §2, §3

PEO-1 [4] = assay: Cytotoxic effect of compound 8 in combination with Cisplatin in PEO-1; assay type: cell-based, human; conditions: PEO-1, 72 h; IC50 of cisplatin alone or with C8 fixed at 44 μM; read-out: IC50 (μM ± SEM)
Experimental: Cisplatin (Sigma-Aldrich, St. […] The luminescence signal was read at the instrument […]). […] Parallelly, the single curves of Cisplatin and compound 8 were performed. […] Pharmacol Rev. 2006; 58:621-81).

PEO-1 [5] = assay: cells; conditions: Homo sapiens, PEO1, 72 h, read-out: IC50 (nM ± SEM)
Experimental: In order to prepare the cytotoxicity experiments the cells were trypsinized, counted with NEUBAUER chamber and plated in black plate having 96 wells per line (Perkinelmer). MDA-MB231, PEO-1, COV318, SW948, NCI-H1975 and NCI-H1299, were plated at 100,000 cells/ml, HCT-15 and MCF-7 at 40,000 cells/ml, In each well of the plate 200 μl of cell suspension were added. […] Parallelly, the single curves of each drug and of C8 were performed.
After 72 h from the addition of the compounds and/or drugs, the effect on the cell growth was evaluated by using the kit ATPlite (PerkinElmer) following the manufacturer's specifications. The luminescence signal was read at the instrument ENspire (PerkElmer). For each treated line, the % of inhibition of the growth with respect to the control and IC50 was calculated with software GraphPad Prism5 Software (San Diego, CA, USA). The combination index (CI) was calculated by using the program Compusyn (downloadable from www.combosyn.com), for the analysis of the combined effects of drugs based upon the equation of Chou-Talalay (Chou-Talalay, Adv Enzyme Regul 1984; 22:27-55). CI<1, =1, and >1 designates synergism, additive effect and antagonism, respectively.
PEO-1 were plated (100,000 cells/ml) in a 96-well black plate. In each well of the plate 200 μl of cell suspension were added.

Structure (SMILES): Nc1nc2c(c(=O)[nH]1)C(c1ccccc1)C1=C(N2)c2ccccc2C1=O (stereo not drawn) [C21, 6-amino-2-phenyl-5,7,9-triazatetracycle[8.7.0.0^3,^8.0^11,^16]heptadeca 1(10),3(8),6,11,13,15 hexaene-4, 17-dione]
- IC50 (NEK6 [1]): 2.6 ± 0.05 µM
- NEK6 activity inhibition in screening (NEK6 [1]): most active
- IC50 (HCT-15; Homo sapiens, HCT-15, 72 h): > 100 µM
- IC50 (NCI-H1975): > 100 µM
- IC50 (NCI-H1299; Homo sapiens, NCI-H1299, 72 h): > 100 µM
- IC50 (SW948): > 100 µM
- IC50 (NEK6 [2]): 49.8 µM
- IC50 (MDA-MB-231; Homo sapiens, MDA-MB-231, 72 h): < 100 µM
- IC50 (MDA-MB-231): 75 ± 12 µM
- IC50 (MCF-7): > 100 µM
- IC50 (PEO-1 [3]): > 100 µM
- IC50 (COV318): > 100 µM

Structure (SMILES): CC1=C(C#N)C(O)=NC(=O)/C1=C\c1ccc(-c2ccccc2)o1 [C8, (5Z)-2-hydroxy-4-methyl-6-oxy-5-[(5-phenylfuran-2il)methylidene]-5,6-dihydropyridine-3-carbonitrile]
- IC50 (NEK6 [1]): 3.4 ± 1.2 µM
- NEK6 activity inhibition in screening (NEK6 [1]): most active
- IC50 (HCT-15): 98.5 ± 0.5 µM
- IC50 (HCT-15; Homo sapiens, HCT-15, 72 h): < 100 µM
- IC50 (NCI-H1975): > 100 µM
- IC50 (NCI-H1299; Homo sapiens, NCI-H1299, 72 h): < 100 µM
- IC50 (NCI-H1299): 87.8 ± 10 µM
- IC50 (SW948): > 100 µM
- IC50 (NEK6 [2]): 13.8 µM
- IC50 (MDA-MB-231; Homo sapiens, MDA-MB-231, 72 h): < 100 µM
- IC50 (MDA-MB-231): 65 ± 15 µM
- IC50 (MCF-7): > 100 µM
- IC50 (COV318): > 100 µM

Structure (SMILES): N.N.[Cl][Pt][Cl] [Cisplatin]
- IC50 (PEO-1 [4]): 7.9 ± 0.65 µM

- IC50 (PEO-1 [5]): 7 ± 0.001 nM
Structure (SMILES): CC(=O)O[C@H]1C(=O)[C@@]2(C)[C@H]([C@H](OC(=O)c3ccccc3)[C@]3(O)C[C@H](OC(=O)[C@H](O)[C@@H](NC(=O)c4ccccc4)c4ccccc4)C(C)=C1C3(C)C)[C@]1(OC(C)=O)CO[C@@H]1C[C@@H]2O [Paclitaxel]
